Results on six compounds are retold here after patent US9062057B2, “CCR5 antagonists for treating HIV” (Purdue Research Foundation, priority 2010, dated 2015).

Where only a bound is given, the exact number is not on record here.

Chain of CCR5 chemokine receptor (P51681 whole entry): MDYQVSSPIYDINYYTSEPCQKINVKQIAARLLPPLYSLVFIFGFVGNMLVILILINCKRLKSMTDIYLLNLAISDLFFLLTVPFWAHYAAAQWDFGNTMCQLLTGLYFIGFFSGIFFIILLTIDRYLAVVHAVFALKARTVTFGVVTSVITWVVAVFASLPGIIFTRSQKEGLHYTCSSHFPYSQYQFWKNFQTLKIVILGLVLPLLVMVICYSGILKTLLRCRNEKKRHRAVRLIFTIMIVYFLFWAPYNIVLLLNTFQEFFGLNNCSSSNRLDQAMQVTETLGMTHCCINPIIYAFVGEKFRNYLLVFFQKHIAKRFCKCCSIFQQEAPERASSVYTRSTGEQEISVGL

This assay addresses CCR5 chemokine receptor (Homo sapiens, UniProt P51681). Put plainly: Inhibition Data (IC50; no method described). The settings on record: assay not described, read-out: Activity (*) (IC50 class).
Consider `CN(C[C@@](C)(CCN1CCc2[nH][nH]c(=O)c2C1)c1ccccc1)S(=O)(=O)c1ccccc1` [Example 78], for which the IC50 is under 1000 nM.

On to `C[C@H](NC(=O)N1CC2CN(CC[C@](C)(CN(C)S(=O)(=O)c3ccccc3)c3ccccc3)CC[C@H]2C1)c1cccc2ccccc12` (stereo partly drawn) [Example 79], for which the IC50 is under 1000 nM.

As to `Cc1nnc(C2CO[C@H]3OCCC23)n1C1CC2CCC(C1)N2CC[C@H](NC(=O)OCc1ccccc1)c1ccccc1` (stereo partly drawn) [Example 80], the IC50 is under 100 nM.

Take `Cc1nnc(C2CO[C@H]3OCCC23)n1C1CC2CCC(C1)N2CC[C@H](NS(=O)(=O)c1ccc2c(c1)OCO2)c1ccccc1` (stereo partly drawn) [Example 81]: the IC50 is under 1000 nM.

As for `Cc1nnc(C2CO[C@H]3OCCC23)n1C1CC2CCC(C1)N2CC[C@H](N)c1ccccc1` (stereo partly drawn) [Example 82], the half-inhibitory concentration (IC50) is under 1000 nM.

On to `Cc1ccc(S(=O)(=O)N[C@@H](CCN2C3CCC2CC(n2c(C)nnc2C2CO[C@H]4OCCC24)C3)c2ccccc2)cc1` (stereo partly drawn) [Example 83], for which the IC50 was under 1000 nM.

Broadly, the IC50 is the midpoint of a concentration-inhibition curve.
